Results: patent publication US20260345624A1, “TREATMENT OF PROSTATE CANCER BY PROMOTING PDE4D7” (KONINKLIJKE PHILIPS N.V., priority 2022, published 2026)
Entries after “also recorded” stand apart in the source; their conditions may differ.

How the values were obtained:
[1] = system: P1-PDE4D7+/+ LNCaP cells; assay: xCELLigence real-time proliferation of P1 LNCaP cells with PDE4D7 re-expression; type: cell-based
[2] = system: PDE4D7-knockdown LNCaP P1 cells; assay: xCELLigence real-time proliferation of PDE4D7-knockdown P1 LNCaP cells; type: cell-based; settings: for resistance to olaparib, PDE4D7-reduced cells: olaparib 10 and 30 μM
Excerpt: Stable shRNA-mediated lentiviral transduced LNCaP cell lines were generated by AMSBIO (Table 1). Briefly, shRNA-PDE4D7 was cloned into a lentivector and delivered into LNCaP clone FGC cells (ATCC) via lentivirus (MOI=10). Cells were maintained in puromycin-supplemented medium prior to selection of stably transduced cells. A stable shRNA-PDE4D7 LNCaP cell line was then re-transduced with lentivirus delivering PDE4D7 to generate a re-introduced cell line. Scrambled-shRNA was used as a control. All cells were cultured in RPMI 1640 medium (Gibco D), supplemented with 10% (v/v) foetal bovine serum, 1% (v/v) L-Glutamine and 1% (v/v) penicillin/streptomycin, and stored within a 37 °C incubator with 5% CO2.
(§1) xCELLigence Real-Time Cell Analysis (RTCA)
(§2) Real-time cell growth was analysed using the xCELLigence RTCA system (Agilent), which measures real-time cell adhesion across gold microelectrode biosensors on 96 well electronic plates (E-plates) within a 37 °C incubator with 5% CO2. Cellular adhesion influences electrical impedance which is converted into the cell index (CI) via RTCA software. Initial background measurements were recorded with 100 μL RPMI 1640 medium, followed by addition of 100 μL LNCaP cell suspension (10,000 cells/wells) for measurement of CI over time. Approximately 24 h after seeding, cells were treated with specified concentrations of drugs. Negative controls containing either 0.1% DMSO or untreated cells were also included. CI was transformed to normalised CI via the RTCA software to timepoint of treatment.

[3] = system: LNCaP WT cells; assay: xCELLigence real-time proliferation of WT LNCaP cells; type: cell-based; settings: for proliferation of WT LNCaPs: PDE4 activator, 1 and 10 μM
Description: as §1, §2

[4] = system: mCRPC; settings: Lloyd et al., 2020; cited from earlier work
[5] = system: PARP cleavage in LNCaP P1; assay: PARP/cleaved PARP western blot in PDE4D7-knockdown P1 LNCaP; type: cell-based; settings: N=3
Description: (§3) FIG. 12: Ratio of PARP and cleaved PARP (PARPc) by western blot analysis in LNCaP WT and LNCaP PDE4D7 knockdown cell line P1 upon incubation with 0.1% DMSO (control), 10 μM Olaparib, and 10 nM docetaxel including quantitation of western blot bands normalised to DMSO.
(§4) Cells were lysed in 3T3 lysis buffer (50 mM NaCl, 50 mM NaF, 30 mM sodium pyrophosphate, 25 mM HEPES, 2.5 mM EDTA, 10% (v/v) glycerol, 1% (v/v) Triton X-100; pH 7.5) supplemented with cOmplete™ EDTA-free protease inhibitor cocktail (Sigma-Aldrich). Lysed cells were rotated end-over-end for 30 minutes at 4 °C, then centrifuged for 10 minutes at 13,000 RPM at […]. Supernatants were collected and protein concentration determined via Bradford assay. Equal concentrations of protein samples were separated via SDS-polyacrylamide gel electrophoresis (SDS-PAGE) and transferred onto nitrocellulose membranes for western blot. Membranes were blocked in 5% (w/v) milk powder in TBS-T for 1 h prior to primary and secondary antibody incubations. […]

[6] = system: PARP cleavage in LNCaP WT; assay: PARP/cleaved PARP western blot in WT LNCaP; type: cell-based; settings: N=3
Description: as §3, §4

[7] = system: advanced PCa; settings: in combination with docetaxel; cited from earlier work
[8] = system: LNCaP cells; settings: Feiersinger et al., 2018; cited from earlier work
[9] = system: cAMP at membrane of P1 LNCaPs; assay: cAMP FRET (CUTie) at plasma membrane of P1 LNCaP; type: cell-based; settings: rolipram
Description: (§5) FIG. 18: Influence of PDE4D7 expression on cAMP dynamics within LNCaPs. Analysis of FRET ratio (YFP/CFP) at cytosol of WT (A) or P1 (C) LNCaPs, or at membrane of WT (B) or P1 (D) LNCaPs upon treatment with rolipram or combined treatment of forskolin+IBMX. (E & F) Real-time growth analysis of WT (G) and P1 (H) cells upon treatment with PDE4 activator MR-L2 (1-10 μM). Slope analysis from 0-48 post-treatment. Mean+/−SEM, N=3, **p<0.01, ***p<0.001.
(§6) Genetically encoded cAMP-fluorescent resonance energy transfer (FRET) probes were used to investigate CAMP dynamics at subcellular regions in WT and P1 LNCaPs. […] CUTie probes targeting the plasma-membrane (AKAP-79) or cytosol (CYTO-pDUAL) were obtained from the Zaccolo lab (REF). […] Given that PDE4D7 is known to be substantially membrane located [FIG. 1C]

[10] = system: cAMP at membrane of WT LNCaPs; assay: cAMP FRET (CUTie) at plasma membrane of WT LNCaP; type: cell-based; settings: rolipram
Description: as §5, §6

[11] = system: cAMP at cytosol of WT LNCaPs; assay: cAMP FRET (CUTie) in cytosol of WT LNCaP; type: cell-based; settings: rolipram
Description: as §5, §6

[12] = system: cAMP at cytosol of P1 LNCaPs; assay: cAMP FRET (CUTie) in cytosol of P1 LNCaP; type: cell-based; settings: rolipram
Description: as §5, §6

Structure (SMILES): CCc1nc(-c2ccc(Cl)c(F)c2)nn1CC(=O)NCc1cc(Cl)cc(Cl)c1 [ML-R2]
- MLR2 sensitivity after PDE4D7 reintroduction to P1 ([1]; PDE4 activator, 10 μM): rescues phenotype of WT LNCaPs on MLR2 sensitivity
- growth of P1 cells ([2]; PDE4 activator, 1-10 μM): inhibition of cell growth in P1 cells
- growth of P1 cells ([2]; PDE4 activator, 1-10 μM, listed as MLR2): attenuates growth of P1 LNCaPs
- growth of P1 cells ([2]; PDE4 activator, 1-10 μM, listed as MR-L2): inhibition of growth in P1 cells
- proliferation of WT LNCaPs [3]: no effect on proliferation in WT LNCaPs at either concentration
- proliferation of WT LNCaPs ([3]; listed as MLR2): no effect on growth of WT LNCaPs
- proliferation of WT LNCaPs ([3]; listed as MR-L2): no effect on proliferation in WT LNCaPs

Structure (SMILES): C[C@@H]1COCCN1c1cc(C2([S@](C)(=N)=O)CC2)nc(-c2cc[nH]c3nccc2-3)n1 [ceralasertib, Ceralasertib]
- synergistic effects in combination with olaparib [4]: enhance synergistic effects in combination with olaparib in mCRPC; also recorded: enhance synergistic effects in combination with olaparib in metastatic CRPC
- sensitivity from growth curves, PDE4D7-knockdown (compared with WT) ([2]; ceralasertib 0-30 μM): highly susceptible to ATR-inhibition via ceralasertib
- growth inhibition, P1 ([2]; ceralasertib 10-30 μM): most significant growth inhibition
- sensitivity of PDE4D7-knockdown cells ([2]; ceralasertib 10-30 μM): extremely sensitive to ATR inhibition via ceralasertib
- growth inhibition independent of PDE4D7 expression, P1 ([2]; summary statement, WT vs P1): reduce tumor growth independent of PDE4D7 expression levels; also recorded: inhibit LNCaP cell growth irrespective of PDE4D7 expression status
- growth inhibition, WT ([3]; ceralasertib 10-30 μM): most significant growth inhibition
- growth inhibition independent of PDE4D7 expression, WT ([3]; summary statement, WT vs P1): reduce tumor growth independent of PDE4D7 expression levels; also recorded: inhibit LNCaP cell growth irrespective of PDE4D7 expression status

Structure (SMILES): CC(=O)O[C@@]12CO[C@@H]1C[C@H](O)[C@@]1(C)C(=O)[C@H](O)C3=C(C)[C@@H](OC(=O)[C@H](O)[C@@H](NC(=O)OC(C)(C)C)c4ccccc4)C[C@@](O)([C@@H](OC(=O)c4ccccc4)[C@H]21)C3(C)C [docetaxel, Docetaxel]
- cleaved PARP ratio, P1 LNCaP ([5]; docetaxel 10 nM): No increase in cleaved PARP ratio
- sensitivity to docetaxel after PDE4D7 re-introduction, vs P1 ([1]; docetaxel 10 μM): more sensitive to docetaxel treatment than P1
- growth of P1 cells ([2]; docetaxel 10 μM): no effect
- growth of PDE4D7-knockdown LNCaPs vs DMSO ([2]; docetaxel, all concentrations (5-25 μM) except 10 μM, slope 0-48 h): significantly reduced growth
- growth of WT LNCaPs ([3]; docetaxel 10 μM): effective in WT
- growth of WT LNCaPs vs DMSO ([3]; docetaxel, all concentrations (5-25 μM), slope 0-48 h): significantly reduced growth
- PARP cleavage, WT LNCaP ([6]; docetaxel 10 nM): increased PARP cleavage

Structure (SMILES): COC(=O)Nc1nc2ccc(C(=O)c3ccccc3)cc2[nH]1 [mebendazole]
- potential in advanced PCa treatment [7]: showed potential in advanced PCa treatment in combination with docetaxel
- effect on P1 cells ([2]; mebendazole 1-10 μM, compared with WT): far more substantial and more significant, with initiation of immediate cell death in the cells at both concentrations; also recorded: PDE4D7-knockdown confers sensitivity to mebendazole in comparison to WT LNCaPs
- WT cell growth ([3]; mebendazole 1-10 μM): significant downregulation of cell growth in a dose-dependent manner

Structure (SMILES): CC#C[C@]1(O)CC[C@H]2[C@@H]3CCC4=CC(=O)CCC4=C3[C@@H](c3ccc(N(C)C)cc3)C[C@@]21C [mifepristone]
- proliferation of P1 LNCaPs ([2]; mifepristone 30 μM): significantly enhanced proliferation
- growth curve over time, P1 LNCaPs ([2]; mifepristone 30 μM, compared to lower concentrations): initial growth was inhibited compared to lower concentrations, however this effect eventually wore off
- P1 cell proliferation vs DMSO ([2]; mifepristone 0.3-10 μM): neither WT or P1 cell proliferation were reduced compared to DMSO
- growth of WT LNCaPs ([3]; mifepristone 30 μM): successfully inhibited growth
- WT cell proliferation vs DMSO ([3]; mifepristone 0.3-10 μM): neither WT or P1 cell proliferation were reduced compared to DMSO

Structure (SMILES): O=C(c1cc(Cc2n[nH]c(=O)c3ccccc23)ccc1F)N1CCN(C(=O)C2CC2)CC1 [olaparib, Olaparib]
- effect against LNCaP cells [8]: effective against LNCaP cells
- cleaved PARP ratio, P1 LNCaP ([5]; olaparib 10 μM): No increase in cleaved PARP ratio
- sensitivity to olaparib after PDE4D7 re-introduction ([1]; olaparib 10 μM): more sensitive to olaparib treatment; also recorded: re-sensitised
- sensitivity to olaparib after PDE4D7 re-introduction ([1]; olaparib 10 μM, listed as Olaparib): enhances sensitivity to Olaparib
- growth vs olaparib-treated P1 and DMSO-treated P1-PDE4D7+/+ cells ([1]; olaparib 10 μM, slope 0-48 h): statistically significant downregulation in growth
- effect on PDE4D7-deficient LNCaP proliferation ([2]; olaparib 0-30 μM): minimal
- growth rate (slope analysis), P1 ([2]; olaparib 0.3 and 1 μM, slope 0-30 h): unexpected reduction in slope
- resistance to olaparib, PDE4D7-reduced cells [2]: resistant to olaparib; also recorded: resistance
- resistance to olaparib, PDE4D7-reduced cells ([2]; listed as Olaparib): resistance
- resistance to PARP inhibition via olaparib upon PDE4D7 knockdown ([2]; overall conclusion): resistant to PARP inhibition via olaparib; also recorded: confers resistance to PARP-inhibition via olaparib; also recorded: enhances resistance to olaparib
- LNCaP WT proliferation ([3]; olaparib 0-30 μM): decreased in a dose-dependent manner
- growth rate (slope analysis), WT ([3]; olaparib 3, 10 and 30 μM, slope 0-30 h): significant reductions in WT growth
- PARP cleavage, WT LNCaP ([6]; olaparib 10 μM): increased PARP cleavage

Structure (SMILES): COc1ccc(C2CNC(=O)C2)cc1OC1CCCC1 (stereo not shown) [rolipram]
- FRET ratio, membrane, P1 [9]: no obvious difference in FRET ratio
- FRET ratio / cAMP, membrane, WT [10]: downregulation of FRET ratio in the membrane compartment of WT LNCaPs, indicating an increase in cAMP concentration
- FRET ratio, cytosol, WT [11]: no observable difference
- FRET ratio, cytosol, P1 [12]: no observable difference
